Columns and labels:
Assay type in all cases: organism-based, Ehrlich
Parameters in all cases: route oral
Mus musculus [1] = assay: Toxicity in Swiss albino mouse bearing mouse EAC cells assessed as hematocrit level at 50 to 250 mg/kg/day, po after 14 days postimplantation; conditions: in vivo, 336 h
Mus musculus [2] = assay: Toxicity in Swiss albino mouse bearing mouse EAC cells assessed as increase in body weight at 50 to 250 mg/kg/day, po; conditions: in vivo
Mus musculus [3] = assay: Toxicity in Swiss albino mouse bearing mouse EAC cells assessed as WBC count at 50 to 250 mg/kg/day, po after 14 days postimplantation; conditions: in vivo, 336 h
Mus musculus [4] = assay: Toxicity in Swiss albino mouse bearing mouse EAC cells assessed as hemoglobin level at 50 to 250 mg/kg/day, po after 14 days postimplantation; conditions: in vivo, 336 h
Mus musculus [5] = assay: Toxicity in Swiss albino mouse bearing mouse EAC cells assessed as mean survival time at 50 to 250 mg/kg/day, po; conditions: in vivo

Row | SMILES | Activity (Mus musculus [1]) [%] | Activity (Mus musculus [2]) | Activity (Mus musculus [3]) | Activity (Mus musculus [4]) [g/dL] | MST (Mus musculus [5]) [days]
1 | Nc1nn2c(c1/N=N/c1ccc(/N=N/c3ccccc3)cc1)NC(=O)CC2 | 43 | Toxic | 12.8 | 10.9 | 17.1
2 | Nc1n[nH]c(/N=N/c2c(O)ccc3ccccc23)c1/N=N/c1ccc(/N=N/c2ccccc2)cc1 | 43.7 | Toxic | 11.5 | 10.5 | 17.8
3 | O=c1[nH]cc(F)c(=O)[nH]1 [FLUOROURACIL] | 42.3 | Toxic | 13.8 | 10 | 16.7
